molecular target: EGFR (UniProt P00533)
Sequence (P00533 whole entry, looked up): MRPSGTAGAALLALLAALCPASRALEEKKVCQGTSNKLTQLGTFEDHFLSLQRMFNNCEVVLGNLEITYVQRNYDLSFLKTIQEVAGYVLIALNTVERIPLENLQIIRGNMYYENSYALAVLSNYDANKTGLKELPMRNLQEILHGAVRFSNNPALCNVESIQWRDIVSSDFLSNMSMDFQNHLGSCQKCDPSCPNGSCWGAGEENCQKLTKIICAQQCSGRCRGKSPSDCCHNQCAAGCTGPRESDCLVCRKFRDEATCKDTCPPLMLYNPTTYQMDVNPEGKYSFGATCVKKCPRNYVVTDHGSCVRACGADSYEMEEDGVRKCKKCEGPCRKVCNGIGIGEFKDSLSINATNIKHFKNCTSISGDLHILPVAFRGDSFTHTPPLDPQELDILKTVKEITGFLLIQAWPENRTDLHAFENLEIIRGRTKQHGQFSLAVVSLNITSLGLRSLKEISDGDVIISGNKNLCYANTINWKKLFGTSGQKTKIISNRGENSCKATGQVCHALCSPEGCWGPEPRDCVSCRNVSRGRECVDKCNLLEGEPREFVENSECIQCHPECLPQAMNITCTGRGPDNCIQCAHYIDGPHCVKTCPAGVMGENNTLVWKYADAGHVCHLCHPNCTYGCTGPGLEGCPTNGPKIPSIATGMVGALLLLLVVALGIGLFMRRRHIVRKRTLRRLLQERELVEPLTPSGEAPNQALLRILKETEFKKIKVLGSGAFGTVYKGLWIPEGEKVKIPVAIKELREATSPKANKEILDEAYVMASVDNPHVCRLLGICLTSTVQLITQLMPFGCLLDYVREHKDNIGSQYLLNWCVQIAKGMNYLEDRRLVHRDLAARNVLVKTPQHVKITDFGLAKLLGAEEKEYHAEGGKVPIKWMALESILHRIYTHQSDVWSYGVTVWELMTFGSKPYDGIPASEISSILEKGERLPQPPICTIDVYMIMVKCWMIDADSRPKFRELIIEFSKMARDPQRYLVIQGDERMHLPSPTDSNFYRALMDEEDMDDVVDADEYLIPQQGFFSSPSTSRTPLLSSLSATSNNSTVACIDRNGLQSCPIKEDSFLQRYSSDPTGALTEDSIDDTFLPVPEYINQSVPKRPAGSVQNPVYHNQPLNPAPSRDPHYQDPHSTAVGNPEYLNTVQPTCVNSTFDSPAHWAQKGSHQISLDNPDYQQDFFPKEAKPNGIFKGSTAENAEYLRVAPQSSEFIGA

Row | SMILES | IC50 [µM]
1 | COc1cc2ncnc(Nc3ccc(OC(C)C)cc3)c2cc1OC | 5
2 | COc1cc2ncnc(Nc3cccc(C#N)c3)c2cc1OC | 10
3 | COc1cc2ncnc(N(C)c3ccccc3)c2cc1OC | 0.2
4 | COc1cc2ncnc(Cc3ccccc3)c2cc1OC | ≤ 0.5
5 | COc1cc2ncnc(NC3CCCCC3)c2cc1OC | < 1
6 | COc1cc2ncnc(Nc3cc(Cl)c(Cl)c(Cl)c3)c2cc1OC | 1
7 | COc1ccc2ncnc(Nc3cc(OC)c(OC)c(OC)c3)c2c1 | 5
8 | COc1cccc(Sc2ncnc3cc(OC)c(OC)cc23)c1 | 2
9 | COc1cc2ncnc(Sc3cccc(Cl)c3)c2cc1OC | 0.1

Now from value to molecule:

Row | IC50 [µM] | SMILES
10 | 0.05 | COc1cc2ncnc(Nc3ccccc3Cl)c2cc1OC
11 | 0.05 | COc1cccc(Nc2ncnc3cc(OC)c(OC)cc23)c1
12 | 0.05 | COc1cc2ncnc(Nc3ccc4ccccc4c3)c2cc1OC
13 | 0.01 | COc1cc2ncnc(Nc3cccc4ccccc34)c2cc1OC
14 | 0.05 to 0.1 | Clc1cccc(Nc2ncnc3ccccc23)c1
